Experimental data as given in ChEMBL document CHEMBL5365543, “Benzamidine Conjugation Converts Expelled Potential Active Agents into Antifungals against Drug-Resistant Fungi” (J Med Chem, 2023).
In brackets after ≈: the same amount, converted by molar mass. Activity calls are given as the source filed them. The calls are words filed in the database; no cut-off is given here.

How the values were obtained:
[1] = Drug accumulation in wild-type Candida albicans SC5314 at 20 microg/ml incubated for 2 hrs by flow cytometery analysis; type: ADME; conditions: dose 20 µg/ml
[2] = Drug accumulation in Candida albicans SC5314 by confocal laser scanning microscopic analysis; type: ADME
Cell membrane = experiment: Disruption of membrane integrity in Candida albicans SC5314 at 16 to 32 microg/ml incubated for 1 hr by Sytox green staining based fluorescence method; type: subcellular; conditions: dose 16-32 µg/ml
[3] = Induction of hemolysis in mouse RBC cells at 2 to 32 microg/ml incubated for 60 mins by absorbance based analysis; type: toxicity, cell-based, Erythrocyte; conditions: red blood cells (erythrocytes), at 2 to 32 µg/mL, dose 2-32 µg/ml, read-out: Activity
Candida albicans [4] = experiment: Antifungal activity against Candida albicans assessed as inhibition of fungal growth measured after 24 hrs by CLSI based microtiter plate analysis; type: functional
[5] = Drug accumulation in Candida albicans TOM70-GFP-CAI4 at 20 microg/ml incubated for 30 mins by confocal laser scanning microscopic analysis; type: ADME; conditions: 0.5 h, dose 20 µg/ml
[6] = Drug localization in mitochondria of Candida albicans SC5314 incubated for 30 mins by MitoTracker dye based confocal laser scanning microscopic analysis; type: ADME; conditions: 0.5 h
[7] = Drug accumulation in Candida albicans YEM13 expressing efflux pump MdrL at 20 microg/ml incubated for 2 hrs by flow cytometery analysis; type: ADME; conditions: dose 20 µg/ml
[8] = Drug accumulation in Candida albicans YEM15 expressing efflux pump CdrL and Cdr2 at 20 microg/ml incubated for 2 hrs by flow cytometery analysis; type: ADME; conditions: dose 20 µg/ml
Candida albicans [9] = experiment: microbe, parasite or virus in culture; type: functional; conditions: DSY654, time 24 hrs
Description: Antifungal activity against efflux pump-deficient Candida albicans DSY654 assessed as inhibition of fungal growth measured after 24 hrs by CLSI based microtiter plate analysis

Candida albicans [10] = experiment: Antifungal activity against wild-type Candida albicans SC5314 assessed as inhibition of fungal growth measured after 24 hrs by CLSI based microtiter plate analysis; type: functional; conditions: for MIC80: Candida albicans
Candida albicans [11] = experiment: Drug accumulation in Candida albicans SC5314 measured per 10^8 cells incubated for 3 hrs by HPLC analysis; type: functional, organism-based
[12] = Cytotoxicity against human HBE cells assessed as inhibition of cell growth measured after 4 hrs by MTT assay; type: toxicity, cell-based
[13] = Cytotoxicity against mouse L929 cells assessed as inhibition of cell growth measured after 4 hrs by MTT assay; type: toxicity, cell-based
Candida albicans [14] = experiment: Antifungal activity against clinical isolate Candida albicans YEM13 overexpressing efflux pump MdrL assessed as inhibition of fungal growth measured after 24 hrs by CLSI based microtiter plate analysis; type: functional
Candida albicans [15] = experiment: Antifungal activity against clinical isolate Candida albicans YEM15 overexpressing efflux pump CdrL and Cdr2 assessed as inhibition of fungal growth measured after 24 hrs by CLSI based microtiter plate analysis; type: functional
Candida albicans [16] = experiment: Antifungal activity against clinical isolate Candida albicans SCUPC2R14MPG2A harbouring UPC2 mutation overexpressing […] Erg11 assessed as inhibition of fungal growth measured after 24 hrs by CLSI based microtiter plate analysis; type: functional
Candida albicans [17] = experiment: Antifungal activity against clinical isolate Candida albicans SCMRRIR34MPG2A harbouring MRR1 mutation overexpressing efflux pump MdrL assessed as inhibition of fungal growth measured after 24 hrs by CLSI based microtiter plate analysis; type: functional
Candida albicans [18] = experiment: Antifungal activity against clinical isolate fluconazole-resistant Candida albicans DSY296 harbouring TAC1 mutation overexpressing efflux pump CdrL and Cdr2 assessed as inhibition of fungal growth measured after 24 hrs by CLSI based microtiter plate analysis; type: functional
Candida albicans [19] = experiment: Antifungal activity against clinical isolate fluconazole-resistant Candida albicans G5 harbouring MRR1 mutation overexpressing MdrL assessed as inhibition of fungal growth measured after 24 hrs by CLSI based microtiter plate analysis; type: functional
Candida albicans [20] = experiment: Antifungal activity against clinical isolate fluconazole-resistant Candida albicans Gu5 harbouring TAC1 mutation overexpressing efflux pump CdrL and Cdr2 assessed as inhibition of fungal growth measured after 24 hrs by CLSI based microtiter plate analysis; type: functional
Candida albicans [21] = experiment: Antifungal activity against clinical isolate fluconazole-resistant Candida albicans CA632 assessed as inhibition of fungal growth measured after 24 hrs by CLSI based microtiter plate analysis; type: functional
[Candida] auris [22] = Antifungal activity against clinical isolate fluconazole-resistant Candida auris CBS12774 assessed as inhibition of fungal growth measured after 24 hrs by CLSI based microtiter plate analysis; type: functional; conditions: Candidozyma auris
[Candida] auris [23] = Antifungal activity against clinical isolate fluconazole-resistant Candida auris CBS12776 assessed as inhibition of fungal growth measured after 24 hrs by CLSI based microtiter plate analysis; type: functional; conditions: Candidozyma auris
Nakaseomyces glabratus = experiment: Antifungal activity against clinical isolate fluconazole-resistant Candida glabrata CG2 assessed as inhibition of fungal growth measured after 24 hrs by CLSI based microtiter plate analysis; type: functional
Cryptococcus neoformans = experiment: Antifungal activity against clinical isolate fluconazole-resistant Cryptococcus neoformans H99 assessed as inhibition of fungal growth measured after 24 hrs by CLSI based microtiter plate analysis; type: functional
Candida tropicalis = experiment: Antifungal activity against clinical isolate fluconazole-resistant Candida tropicalis CT10 assessed as inhibition of fungal growth measured after 24 hrs by CLSI based microtiter plate analysis; type: functional
[24] = Drug accumulation in wild-type Candida albicans SC5314 at 50 microg/ml incubated for 3 hrs by HPLC analysis; type: ADME; conditions: dose 50 µg/ml
Candida albicans [25] = experiment: Induction of drug resistance in wild-type Candida albicans SC5314 assessed as change in MIC at 0.5 times of MIC measured after 30 passages by broth microdilution method; type: functional
[26] = Induction of DNA damage in human HBE cells assessed as increase in gammaH2AX level at 2 to 8 microg/ml by Western blotting analysis; type: toxicity, cell-based; conditions: dose 2-8 µg/ml

Row | MIC80 (Candida albicans [9]) [mg/L] | MIC80 (Candida albicans [10]; SC5314, read-out: MIC80) [mg/L] | Structure (SMILES) | hemolysis at 1 h [3] [%] | MIC80 (Candida albicans [10]; SC5314, 24 h, read-out: MIC80) [mg/L] | MIC80 (Candida albicans [14]) [mg/L] | MIC80 (Candida albicans [15]) [mg/L] | MIC80 (Candida albicans [16]) [mg/L] | MIC80 (Candida albicans [17]) [mg/L] | MIC80 (Candida albicans [18]) [mg/L] | MIC80 (Candida albicans [19]) [mg/L] | MIC80 (Candida albicans [20]) [mg/L] | MIC80 (Candida albicans [21]) [mg/L] | MIC80 ([Candida] auris [22]) [mg/L] | MIC80 ([Candida] auris [23]) [mg/L] | MIC80 (Nakaseomyces glabratus) [mg/L] | MIC80 (Cryptococcus neoformans) [mg/L] | MIC80 (Candida tropicalis) [mg/L] | Drug uptake [24] | MIC (Candida albicans [10]) | other results
1 |  |  | CCN(CC)c1ccc2c(-c3ccccc3C(=O)N3CCN(Cc4cn(CCCOc5ccc(C(=N)N)cc5)nn4)CC3)c3ccc(=[N+](CC)CC)cc-3oc2c1.[Cl-] | < 2 |  |  |  |  |  |  |  |  |  |  |  |  |  |  |  |  | Drug uptake [1]: Active; Drug uptake [2]: Active; Activity (Cell membrane): inactive; MIC (Candida albicans [4]): > 128 mg/L; Drug uptake [5]: Active; Drug uptake [6]: Active; Drug uptake [7]: Active; Drug uptake [8]: Active
2 | 32 | > 256 | C=C1C[C@@]23CC[C@H]4[C@@](C)(CCC[C@@]4(C)C(=O)OCC[N+](C)(CC)CC)[C@@H]2CC[C@]1(O)C3.[I-] |  |  |  |  |  |  |  |  |  |  |  |  |  |  |  |  |  | Drug uptake (Candida albicans [11]): inactive
3 | 4 | 8 | C=C1C[C@@]23CC[C@H]4[C@@](C)(CCC[C@@]4(C)C(=O)OCCCc4c5[n+](cc6c(OC)c(OC)ccc46)CCc4cc6c(cc4-5)OCO6)[C@@H]2CC[C@]1(O)C3.[I-] | < 2 |  |  |  |  |  |  |  |  |  |  |  |  |  |  |  |  | IC50 at 4 h [12]: 4.79 mg/L; IC50 at 4 h [13]: 1.32 mg/L
4 | 4 | 8 | C=C1C[C@@]23CC[C@H]4[C@@](C)(CCC[C@@]4(C)C(=O)OCCCCC[n+]4c(C)cc(N)c5ccccc54)[C@@H]2CC[C@]1(O)C3.[I-] | < 2 |  |  |  |  |  |  |  |  |  |  |  |  |  |  |  |  | IC50 at 4 h [12]: 6.53 mg/L; IC50 at 4 h [13]: 8.34 mg/L
5 |  |  | CCN(CC)c1ccc2c(-c3ccccc3C(=O)O)c3ccc(=[N+](CC)CC)cc-3oc2c1.[Cl-] [RHODAMINE] |  |  |  |  |  |  |  |  |  |  |  |  |  |  |  |  |  | Drug uptake [2]: Not Active
6 |  |  | C=C1C(=O)[C@@]23CC[C@H]4[C@@](C)(CCC[C@@]4(C)C(=O)OCCCOc4ccc(C(=N)N)cc4)[C@@H]2CC[C@]1(O)C3 |  | 4 (≈ 7.86 µM) | 4 (≈ 7.86 µM) | 4 (≈ 7.86 µM) | 4 (≈ 7.86 µM) | 8 (≈ 15.7 µM) | 4 (≈ 7.86 µM) | 4 (≈ 7.86 µM) | 8 (≈ 15.7 µM) | 4 (≈ 7.86 µM) | 8 (≈ 15.7 µM) | 8 (≈ 15.7 µM) | 8 (≈ 15.7 µM) | 8 (≈ 15.7 µM) | 4 (≈ 7.86 µM) | Active |  | 
7 |  |  | CCN(CC)c1ccc2cc(C(=O)OCCCCCCCCOc3ccc(C(=N)N)cc3)c(=O)oc2c1 |  |  |  |  |  |  |  |  |  |  |  |  |  |  |  |  |  | Drug uptake [6]: Active
8 |  |  | C[C@H]1[C@H](C)CC[C@]2(C(=O)OCCCOc3ccc(C(=N)N)cc3)CC[C@]3(C)C(=CC[C@@H]4[C@@]5(C)CC[C@H](O)C(C)(C)[C@@H]5CC[C@]43C)[C@H]12 |  | 4 (≈ 6.32 µM) | 4 (≈ 6.32 µM) | 4 (≈ 6.32 µM) | 4 (≈ 6.32 µM) | 4 (≈ 6.32 µM) | 4 (≈ 6.32 µM) | 4 (≈ 6.32 µM) | 4 (≈ 6.32 µM) | 4 (≈ 6.32 µM) | 8 (≈ 12.6 µM) | 4 (≈ 6.32 µM) | 4 (≈ 6.32 µM) | 4 (≈ 6.32 µM) | 4 (≈ 6.32 µM) | Active | inactive | Activity (Candida albicans [25]): Active
9 |  |  | N=C(N)c1ccc(OCCCN2CCC(=C3c4ccc(Cl)cc4CCc4cccnc43)CC2)cc1 |  | 32 (≈ 65.7 µM) | 32 (≈ 65.7 µM) | 32 (≈ 65.7 µM) | 32 (≈ 65.7 µM) | 32 (≈ 65.7 µM) | 64 (≈ 131 µM) | 32 (≈ 65.7 µM) | 64 (≈ 131 µM) | 32 (≈ 65.7 µM) | 64 (≈ 131 µM) | 64 (≈ 131 µM) | 64 (≈ 131 µM) | 16 (≈ 32.9 µM) | 32 (≈ 65.7 µM) | Active | inactive | 
10 |  |  | C[C@@]12CC[C@@H]3[C@](CC[C@H]4[C@@]3(C)CCC[C@@]4(C)C(=O)OCCCOc3ccc(C(=N)N)cc3)(CC1=O)C2 |  | 4 (≈ 8.09 µM) | 4 (≈ 8.09 µM) | 4 (≈ 8.09 µM) | 4 (≈ 8.09 µM) | 8 (≈ 16.2 µM) | 4 (≈ 8.09 µM) | 8 (≈ 16.2 µM) | 4 (≈ 8.09 µM) | 4 (≈ 8.09 µM) | 8 (≈ 16.2 µM) | 8 (≈ 16.2 µM) | 8 (≈ 16.2 µM) | 4 (≈ 8.09 µM) | 4 (≈ 8.09 µM) | Active | inactive | Activity [26]: Non-Toxic
